Source: patent publication US4351948A, “Imidazole hydrazone derivatives” (priority 1980, dated 1982)
Counter-ions that a name gives are not always drawn. Like-named read-outs stand apart in the source and are kept apart here.

Assays:
[1] = test system: Trichophyton mentagrophytes; test: Experimental Trichophyton mentagrophytes infection in guinea pigs; format: in vivo
Excerpt: Effect of oral or topical administration of HC274, HC344, Clotrimazole, and Ketoconazole on experimental Trichophyton mentagrophytes infection in guinea pigs.
*Based on degree of hair loss, erythema, desquamation, Max. = 100
Treatments administered in Carbopol® gel, once daily days 5-10.

C. albicans [2] = test: Vaginal candida infection in rats, oral or topical treatment; format: in vivo
Excerpt: Effect of oral or topical administration of HC274 and ketoconazole on vaginal candida infection in rats. Clearance of C. albicans from rat vagina following oral or topical treatment (as percentage of control).
Topical treatment: 1% solution in polyethylene glycol administrated twice daily for 3 days.
Oral treatment: Once daily for 3 days.

platelet aggregation = test: Platelet aggregation after oral administration in the retired male breeder rat model; format: in vivo; details: read-out: ED50 (3 hr. post oral administration)
Excerpt: HC 501 has also been evaluated for platelet aggregation 3 hrs. after oral administration in the retired male breeder rat model (R. N. Saunders et al, Lab. Anim. Sci., 1977, 27, 757).

[3] = test system: platelet thromboxane generation; test: Inhibition of platelet thromboxane generation (TxB2, collagen-stimulated human platelet rich plasma); format: cell-based; details: 10 min, collagen 8 μg/ml, human PRP, 10 min. incubation, 37° C., read-out: Activity IC50 (50% inhibition of TxB2 generation)
Protocol: The compounds used according to the invention as anti-thrombotics were tested by the following method for their ability to inhibit platelet thromboxane generation.
Human venous blood was collected from healthy male donors, who had denied any medication in the previous 14 days. Nine volumes of blood were mixed with one volume of 3.24% trisodium citrate. The citrated blood was centrifuged at 160 g for 10 mins. at 22° C. to obtain platelet rich plasma (PRP). The platelets were then counted on a Coulter counter, and the platelet count was adjusted to 200,000 per μl with plasma.
The PRP was then dispensed as aliquots into micro-Eppendorf tubes, maintained at 37° C. in a dry bath. The compounds dissolved either in saline, ethanol, or DMSO were added in duplicate to the PRP aliquots to produce final concentrations of 0.3, 3 and 30 μg/ml. When ethanol and DMSO were used as the vehicle, triplicate controls containing the same percentage of vehicle as the test compounds were made. The final concentration or organic solvent was never more than 0.1%, which in previous experiments had no effect on TxB2 generation.
Following a 10 min. incubation with test compounds or vehicle, collagen was added to produce a final concentration of 8 μg/ml. The tubes were then whirly-mixed for 15 seconds and replaced in the dry bath for a further 10 minutes, controls received saline instead of collagen. The reaction was then stopped by rapid centrifugation, 15,000 g for 3 mins. The plasma was removed and frozen at -29° C. until assayed.
Briefly, 100 μl aliquots, in tricine buffered saline+0.8% gelatin (pH 8.0) of the following were incubated together for 1 hour at 37° C.: thromboxane Tx B2 (plasma extract, spiked plasma extract or standards 20 to 20,000 pg/ml), ^3 H--TxB2 (approximately 15,000 dpm) and anti-TxB2 antiserum (0.5 μg/100 μl). The free and protein bound ^3 H--TxB2 were separated by ammonium sulphate precipitation followed by centrifugation. 300 μl of the supernatant was added to an aqueous scintillation fluid, and the radioactivity present was counted in a liquid scintillation counter. The binding of ^3 H--TxB2 in the absence of added TxB2 was approximately 55%. The least amount of TxB2 to be detected accurately in the plasma was 0.08 ng/ml. Cross reactivity with other prostaglandins is less than 0.005% except PGD2 which is 1%.
Thus plasma samples were assayed to give a rough approximation of TxB2 content. The plasma was then appropriately diluted and assayed in duplicate to give accurate values.
The amount of TxB2 generated by the collagen was calculated by subtracting mean values obtained for the saline stimulated platelets from the mean values obtained from the collagen stimulated platelets. Then the amount of TxB2 generated in the presence of each concentration of compound was expressed as a % control and dose response curves were then constructed to determine the concentration of compound which produced a 50% inhibition.

candida = test: Intravenous administration: recovery of viable candida cells from the kidneys of infected mice; format: in vivo; details: 25 mg/ml
C. albicans [4] = test: Recovery of viable candida cells from the kidneys of infected mice (p.o. and i.v. treatment); format: in vivo; details: 25 mg/kg 1 h and 24 h after infection
Protocol: Mice receive 25×10^4 cells of C. albicans i.v. Treatments (25 mg/kg) administered in PEG/Dextrose 1 h and 24 h after infection. Animals sacrified 48 h after infection and kidneys excised, weighed, homogenized and decimal dilutions spread on glucose-peptone agar.

Staphylococcus aureus = test: Anti-bacterial activity, zone diameter; format: cell-based; details: for zone of inhibition at 50 µg/disc: read-out: Zone diameter given by 50 μg of drug
Excerpt: (§1) The anti-bacterial activity of the compound HC274 according to the present invention was also compared with the activity of known anti-bacterial agents with the following results: […]

pseudomonas aeruginosa = test: Anti-bacterial activity, zone diameter; format: cell-based; details: for zone of inhibition at 50 µg/disc: read-out: Zone diameter given by 50 μg of drug
Excerpt: as §1

Escherichia coli = test: Anti-bacterial activity, zone diameter; format: cell-based; details: for zone of inhibition at 50 µg/disc: read-out: Zone diameter given by 50 μg of drug
Excerpt: as §1

Nocardia asteroides = test: Anti-bacterial activity, zone diameter; format: cell-based; details: for zone of inhibition at 50 µg/disc: read-out: Zone diameter given by 50 μg of drug
Excerpt: as §1

Proteus vulgaris = test: Anti-bacterial activity, zone diameter; format: cell-based; details: for zone of inhibition at 50 µg/disc: read-out: Zone diameter given by 50 μg of drug
Excerpt: as §1

Nocardia brasiliensis = test: Anti-bacterial activity, zone diameter; format: cell-based; details: for zone of inhibition at 50 µg/disc: read-out: Zone diameter given by 50 μg of drug
Excerpt: as §1

Klebsiella pneumoniac = test: Anti-bacterial activity, zone diameter; format: cell-based; details: for zone of inhibition at 50 µg/disc: read-out: Zone diameter given by 50 μg of drug
Excerpt: as §1

Streptococcus pyrogenes = test: Anti-bacterial activity, zone diameter; format: cell-based; details: for zone of inhibition at 50 µg/disc: read-out: Zone diameter given by 50 μg of drug
Excerpt: as §1

candida albicans = test: Oral treatment: recovery of viable candida albicans from the kidneys of infected mice; format: in vivo
Excerpt: Effect of oral treatment with HC274, HC316, HC390, HC415 and Ketoconazole on the recovery of viable candida albicans from the kidneys of infected mice.

[5] = topical, 1% w/w in Carbopol gel once daily days 5-10, day 10 after infection
[6] = topical, 1% w/w in Carbopol gel, day 5 after infection
[7] = topical, 1% solution in polyethylene glycol twice daily for 3 days
[8] = oral, 3 hr, retired male breeder rat

## Clc1ccccc1C(c1ccccc1)(c1ccccc1)n1ccnc1 [Clotrimazole, 1-(2-Chlorophenyl)diphenylmethyl-1H-imidazole, reference compound]
[1]; [5]
  Disease rating (degree of hair loss, erythema, desquamation, Max. = 100): 51.9
[1]; [6]
  Disease rating (degree of hair loss, erythema, desquamation, Max. = 100): 100
C. albicans [2]; [7]
  Clearance of C. albicans from rat vagina (as percentage of control): 100 percentage of control
In vivo; mouse, in vivo, iv
  LD50 at 168 h: 10 mg/kg
In vivo; p.o., male mice, 7 day
  LD12.5: 500 mg/kg

## CC(=O)Oc1ccccc1C(=O)O [Aspirin, 2(Acetyloxy)benzoic acid]
Platelet aggregation; Rattus norvegicus, po, 3 h
  ED50: 7.7 mg/kg

## O=C1C(CC[S+]([O-])c2ccccc2)C(=O)N(c2ccccc2)N1c1ccccc1 (stereo not drawn) [Sulfinpyrazone]
Platelet aggregation; [8]
  ED50: 4.1 mg/kg

## Clc1ccc(/C(Cn2ccnc2)=N/Nc2ccccc2Cl)cc1 [HC 501, (Z)-1-(4-chlorophenyl)-2-(1H-imidazol-1-yl)ethanone,2-chlorophenylhydrazone, hydrochloride]
Platelet aggregation; [8]
  ED50: 0.003 mg/kg
[3]
  IC50: < 780 nM

## Clc1ccc(C(Cn2ccnc2)OCc2ccsc2Cl)c(Cl)c1 (stereo not drawn) [Tioconazole, 1-[2-[(2-Chloro-3-thienyl)methoxy]-2-(2,4-dichlorophenyl)ethyl]-1H-imidazole]
candida
  CFU/g kidney: 8.1 × 10^3 CFU/g kidney
  CFU/g kidney, % of control: 55 % of control
C. albicans [4]; i.v.
  No. of CFU/g kidney at 48 h: 1.2 × 10^3 CFU/g kidney
C. albicans [4]; p.o.
  No. of CFU/g kidney at 48 h: 2.2 × 10^3 CFU/g kidney
In vivo; mouse, in vivo, po
  LD12.5: > 500 mg/kg

## Clc1ccc(COC(Cn2ccnc2)c2ccc(Cl)cc2Cl)c(Cl)c1 (stereo not drawn) [Miconazole, 1-[2-(2,4-Dichlorophenyl)-2-[(2,4-dichlorophenyl)methoxy]ethyl]-1H-imidazole]
C. albicans [4]; i.v.
  No. of CFU/g kidney at 48 h: 9 × 10^2 CFU/g kidney
C. albicans [4]; p.o.
  No. of CFU/g kidney at 48 h: 1.4 × 10^3 CFU/g kidney
In vivo; mouse, in vivo, iv, male mice, 7 day, read-out: LD50
  LD50 at 168 h: 80 mg/kg
In vivo; p.o., male mice, 7 day
  LD12.5: > 500 mg/kg

## Polymyxin [PM]
Staphylococcus aureus; 50 μg
  Zone diameter given by 50 μg of drug: 7 MM
Pseudomonas aeruginosa; 50 μg, pseudomonas aeruginosa
  Zone diameter given by 50 μg of drug: 10 MM
Escherichia coli; 50 μg
  Zone diameter given by 50 μg of drug: 10 MM
Nocardia asteroides; 50 μg
  Zone diameter given by 50 μg of drug: 11 MM
Proteus vulgaris; 50 μg
  Zone diameter given by 50 μg of drug: 12 MM
Nocardia brasiliensis; 50 μg
  Zone diameter given by 50 μg of drug: 0 MM
Klebsiella pneumoniac; 50 μg, Klebsiella pneumoniac
  Zone diameter given by 50 μg of drug: 10 MM
Streptococcus pyrogenes; 50 μg, Streptococcus pyrogenes
  Zone diameter given by 50 μg of drug: 0 MM

## Cl.Fc1c(F)c(F)c(N/N=C(\Cn2ccnc2)c2ccc(Cl)cc2)c(F)c1F [HC415, (Z)-1-(4-chlorophenyl)-2-(1H-imidazol-1-yl)ethanone, 2,3,4,5,6-pentafluorophenylhydrazone hydrochloride]
Candida albicans; 5 mg/kg
  Recovery of C.albicans (as percentage of control): 14.0 percentage of control
Candida albicans; 20 mg/kg
  Recovery of C.albicans (as percentage of control): 17.2 percentage of control

## OCCN(CCO)c1nc(N2CCCCC2)c2nc(N(CCO)CCO)nc(N3CCCCC3)c2n1 [Dipyridamide, 2,2',2",2"',[(4,8Di-1-piperidinyl-pyrimido]5,4d[pyrimidine2,6-diyl)dinitrlo] tetrakisethanol]
Platelet aggregation; [8]
  ED50: 6.8 mg/kg

## CC1(C)S[C@@H]2[C@H](NC(=O)[C@H](N)c3ccccc3)C(=O)N2[C@H]1C(=O)O [AMP, Ampicillin]
Staphylococcus aureus; 50 μg
  zone of inhibition at 50 µg/disc: 21 mm
Pseudomonas aeruginosa; 50 μg, pseudomonas aeruginosa
  zone of inhibition at 50 µg/disc: 0 mm
Escherichia coli; 50 μg
  zone of inhibition at 50 µg/disc: 17 mm
Nocardia asteroides; 50 μg
  zone of inhibition at 50 µg/disc: 38 mm
Proteus vulgaris; 50 μg
  zone of inhibition at 50 µg/disc: 28 mm
Nocardia brasiliensis; 50 μg
  zone of inhibition at 50 µg/disc: 38 mm
Klebsiella pneumoniac; 50 μg, Klebsiella pneumoniac
  zone of inhibition at 50 µg/disc: 11 mm
Streptococcus pyrogenes; 50 μg, Streptococcus pyrogenes
  zone of inhibition at 50 µg/disc: 25 mm

## Clc1ccc(/C(Cn2ccnc2)=N/Nc2c(Cl)cccc2Cl)cc1 [HC344, (Z)-1-(4-chlorophenyl)-2-(1H-imidazol-1-yl) ethanone, 2,6-dichlorophenylhydrazone, hydrochloride]
[1]; [5]
  Disease rating (degree of hair loss, erythema, desquamation, Max. = 100): 24.6
[1]; [6]
  Disease rating (degree of hair loss, erythema, desquamation, Max. = 100): 100
In vivo; mouse, in vivo, ip, male mice, 7 day, read-out: LD50
  LD50 at 168 h: 780 mg/kg
In vivo; p.o., male mice, 7 day
  LD12.5: > 1500 mg/kg

## CC(=O)N1CCN(c2ccc(OCC3COC(Cn4ccnc4)(c4ccc(Cl)cc4Cl)O3)cc2)CC1 (stereo not drawn) [Ketoconazole, cis-1-Acetyl-4-[4-[[2-(2,4-dichlorophenyl)-2-(1H-imidazol-1-yl-methyl)-1,3-dioxolan-4-yl]methoxy]piperazine, reference compound]
[1]; 20 mg/kg p.o., day 5 after infection
  Disease rating (degree of hair loss, erythema, desquamation, Max. = 100): 100
[1]; 20 mg/kg p.o., day 10 after infection
  Disease rating (degree of hair loss, erythema, desquamation, Max. = 100): 63.7
[1]; [5]
  Disease rating (degree of hair loss, erythema, desquamation, Max. = 100): 56.4
[1]; [6]
  Disease rating (degree of hair loss, erythema, desquamation, Max. = 100): 100
Candida albicans; 5 mg/kg
  Recovery of C.albicans (as percentage of control): 51.0 percentage of control
Candida albicans; 20 mg/kg
  Recovery of C.albicans (as percentage of control): 11.7 percentage of control
C. albicans [2]; oral, 10 mg/kg once daily for 3 days
  Clearance of C. albicans from rat vagina (as percentage of control): 99.9 percentage of control
C. albicans [2]; [7]
  Clearance of C. albicans from rat vagina (as percentage of control): 99.9 percentage of control

## CCn1cc(C(=O)O)c(=O)c2ccc(C)nc21 [NA, Nalidixic Acid]
Staphylococcus aureus
  zone of inhibition at 50 µg/disc: 9 mm
Pseudomonas aeruginosa; Pseudomonas aeruginosa
  zone of inhibition at 50 µg/disc: 7 mm
Escherichia coli
  zone of inhibition at 50 µg/disc: 18 mm
Nocardia asteroides
  zone of inhibition at 50 µg/disc: 0 mm
Proteus vulgaris
  zone of inhibition at 50 µg/disc: 25 mm
Nocardia brasiliensis
  zone of inhibition at 50 µg/disc: 7 mm
Klebsiella pneumoniac; Klebsiella
  zone of inhibition at 50 µg/disc: 21 mm
Streptococcus pyrogenes; Streptococcus
  zone of inhibition at 50 µg/disc: 0 mm
